The results in this text go back to ChEMBL document CHEMBL1909046, “DrugMatrix in vitro pharmacology data”.

For series [1], the target named is T1, Cholecystokinin receptor type A (Homo sapiens, UniProt P32238). Further: in other assays of this panel Not Active means under 50% inhibition at 10 µM.
T1 sequence (P32238 whole entry): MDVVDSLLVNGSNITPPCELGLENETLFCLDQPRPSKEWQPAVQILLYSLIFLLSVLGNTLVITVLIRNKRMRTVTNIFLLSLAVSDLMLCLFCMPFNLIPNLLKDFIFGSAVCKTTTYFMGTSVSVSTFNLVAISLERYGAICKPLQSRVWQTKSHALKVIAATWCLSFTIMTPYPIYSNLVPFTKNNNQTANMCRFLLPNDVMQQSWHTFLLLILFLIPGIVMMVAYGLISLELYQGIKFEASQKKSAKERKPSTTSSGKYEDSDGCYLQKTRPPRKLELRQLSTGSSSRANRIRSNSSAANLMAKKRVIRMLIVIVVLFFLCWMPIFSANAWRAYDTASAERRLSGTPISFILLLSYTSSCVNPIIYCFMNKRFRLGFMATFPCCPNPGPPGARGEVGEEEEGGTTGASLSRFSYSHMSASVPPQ
It counts as cell membranes, Membrane. The note with it: 1321-n1.

The target of the next series is D(3) dopamine receptor (Homo sapiens, UniProt P35462). Briefly: DRUGMATRIX: Dopamine D3 radioligand binding (ligand: [3H] Spiperone). It counts as cell membranes, CHO, Membrane.
Sequence of D(3) dopamine receptor (P35462 whole entry): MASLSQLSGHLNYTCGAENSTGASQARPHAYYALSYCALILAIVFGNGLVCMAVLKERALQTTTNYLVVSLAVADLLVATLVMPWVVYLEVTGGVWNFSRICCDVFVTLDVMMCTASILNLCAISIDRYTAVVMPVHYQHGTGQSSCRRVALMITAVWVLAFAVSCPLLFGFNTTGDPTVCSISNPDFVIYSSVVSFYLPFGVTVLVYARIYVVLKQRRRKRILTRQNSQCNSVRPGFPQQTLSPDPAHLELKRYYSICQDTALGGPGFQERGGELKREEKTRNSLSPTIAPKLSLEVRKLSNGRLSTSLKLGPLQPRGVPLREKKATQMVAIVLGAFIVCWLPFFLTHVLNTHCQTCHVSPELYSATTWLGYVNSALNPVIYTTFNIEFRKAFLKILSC
The target in series [2] is Delta-type opioid receptor (Homo sapiens, UniProt P41143). Format: cell membranes, HEK293, Membrane. Particulars: hek293. Further: in other assays of this panel Not Active means under 50% inhibition at 10 µM.
Sequence of Delta-type opioid receptor (P41143 whole entry): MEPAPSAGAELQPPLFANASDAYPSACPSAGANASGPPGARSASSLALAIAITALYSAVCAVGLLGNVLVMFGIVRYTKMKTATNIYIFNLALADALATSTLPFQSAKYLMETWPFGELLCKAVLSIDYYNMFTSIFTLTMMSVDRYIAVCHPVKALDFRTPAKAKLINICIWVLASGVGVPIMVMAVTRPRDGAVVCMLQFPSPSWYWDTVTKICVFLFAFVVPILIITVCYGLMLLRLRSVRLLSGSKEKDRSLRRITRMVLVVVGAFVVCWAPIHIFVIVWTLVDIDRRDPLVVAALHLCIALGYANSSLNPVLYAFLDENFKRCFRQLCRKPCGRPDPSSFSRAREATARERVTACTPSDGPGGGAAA
The target in series [3] is T2, Receptor-type tyrosine-protein phosphatase C (Homo sapiens, UniProt P08575).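 Further: inhibition of CD45 enzyme activity measured using DiFMUP as substrate; in other assays of this panel Not Active means under 50% inhibition at 10 µM.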
T2 sequence (P08575 whole entry): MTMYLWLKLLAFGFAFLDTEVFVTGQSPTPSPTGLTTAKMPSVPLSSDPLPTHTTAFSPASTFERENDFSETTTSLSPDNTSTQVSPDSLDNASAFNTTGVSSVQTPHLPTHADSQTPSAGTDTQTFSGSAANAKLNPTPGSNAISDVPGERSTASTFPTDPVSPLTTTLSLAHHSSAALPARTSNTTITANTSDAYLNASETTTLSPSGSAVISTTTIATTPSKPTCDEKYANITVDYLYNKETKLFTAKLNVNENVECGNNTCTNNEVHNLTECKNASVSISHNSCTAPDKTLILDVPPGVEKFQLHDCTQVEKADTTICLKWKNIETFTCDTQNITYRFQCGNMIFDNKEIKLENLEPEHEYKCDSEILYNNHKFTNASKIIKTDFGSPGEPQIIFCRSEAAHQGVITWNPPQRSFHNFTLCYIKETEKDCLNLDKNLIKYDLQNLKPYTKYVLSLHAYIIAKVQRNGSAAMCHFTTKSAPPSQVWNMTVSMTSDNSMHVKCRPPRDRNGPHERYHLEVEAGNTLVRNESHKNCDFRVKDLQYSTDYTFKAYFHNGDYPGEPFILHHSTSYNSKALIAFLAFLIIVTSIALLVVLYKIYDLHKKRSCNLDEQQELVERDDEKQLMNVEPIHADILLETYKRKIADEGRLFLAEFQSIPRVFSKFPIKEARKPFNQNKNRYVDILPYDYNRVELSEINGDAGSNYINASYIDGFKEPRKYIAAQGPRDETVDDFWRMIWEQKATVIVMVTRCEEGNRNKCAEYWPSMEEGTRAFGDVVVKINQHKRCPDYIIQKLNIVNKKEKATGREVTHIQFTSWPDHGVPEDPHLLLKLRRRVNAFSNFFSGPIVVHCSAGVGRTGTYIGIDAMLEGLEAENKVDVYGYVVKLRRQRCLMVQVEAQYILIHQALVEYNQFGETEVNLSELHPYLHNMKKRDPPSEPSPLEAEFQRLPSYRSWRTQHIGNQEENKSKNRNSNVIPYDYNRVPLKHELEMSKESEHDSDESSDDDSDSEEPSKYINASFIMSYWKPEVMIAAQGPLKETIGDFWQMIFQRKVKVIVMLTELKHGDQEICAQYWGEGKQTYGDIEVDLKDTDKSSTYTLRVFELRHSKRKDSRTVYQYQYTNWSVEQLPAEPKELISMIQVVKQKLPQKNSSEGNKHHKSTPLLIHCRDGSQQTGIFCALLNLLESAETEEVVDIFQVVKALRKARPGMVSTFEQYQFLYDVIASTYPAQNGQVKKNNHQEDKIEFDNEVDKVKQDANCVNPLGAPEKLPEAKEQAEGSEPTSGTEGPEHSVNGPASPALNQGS
On the set-up: species or system Escherichia coli.

The target in series [4] is T3, Cytochrome P450 2D6 (Homo sapiens, UniProt P10635).
T3 sequence (P10635 whole entry): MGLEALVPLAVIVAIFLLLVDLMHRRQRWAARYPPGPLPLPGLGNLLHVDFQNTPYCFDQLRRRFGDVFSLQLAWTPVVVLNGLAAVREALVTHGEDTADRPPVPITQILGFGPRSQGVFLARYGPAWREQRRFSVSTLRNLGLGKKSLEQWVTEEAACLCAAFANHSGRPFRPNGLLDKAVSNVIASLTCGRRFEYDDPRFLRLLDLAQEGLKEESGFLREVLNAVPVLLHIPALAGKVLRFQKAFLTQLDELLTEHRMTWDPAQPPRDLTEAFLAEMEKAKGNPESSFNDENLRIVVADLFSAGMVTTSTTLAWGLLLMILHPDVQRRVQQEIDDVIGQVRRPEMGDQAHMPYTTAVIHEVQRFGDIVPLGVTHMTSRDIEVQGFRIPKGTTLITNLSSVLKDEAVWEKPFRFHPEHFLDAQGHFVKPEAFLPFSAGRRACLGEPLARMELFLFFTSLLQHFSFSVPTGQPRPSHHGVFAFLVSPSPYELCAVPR
Another series deals with T4, Androgen receptor (Rattus norvegicus, UniProt P15207).
T4 sequence (P15207 whole entry): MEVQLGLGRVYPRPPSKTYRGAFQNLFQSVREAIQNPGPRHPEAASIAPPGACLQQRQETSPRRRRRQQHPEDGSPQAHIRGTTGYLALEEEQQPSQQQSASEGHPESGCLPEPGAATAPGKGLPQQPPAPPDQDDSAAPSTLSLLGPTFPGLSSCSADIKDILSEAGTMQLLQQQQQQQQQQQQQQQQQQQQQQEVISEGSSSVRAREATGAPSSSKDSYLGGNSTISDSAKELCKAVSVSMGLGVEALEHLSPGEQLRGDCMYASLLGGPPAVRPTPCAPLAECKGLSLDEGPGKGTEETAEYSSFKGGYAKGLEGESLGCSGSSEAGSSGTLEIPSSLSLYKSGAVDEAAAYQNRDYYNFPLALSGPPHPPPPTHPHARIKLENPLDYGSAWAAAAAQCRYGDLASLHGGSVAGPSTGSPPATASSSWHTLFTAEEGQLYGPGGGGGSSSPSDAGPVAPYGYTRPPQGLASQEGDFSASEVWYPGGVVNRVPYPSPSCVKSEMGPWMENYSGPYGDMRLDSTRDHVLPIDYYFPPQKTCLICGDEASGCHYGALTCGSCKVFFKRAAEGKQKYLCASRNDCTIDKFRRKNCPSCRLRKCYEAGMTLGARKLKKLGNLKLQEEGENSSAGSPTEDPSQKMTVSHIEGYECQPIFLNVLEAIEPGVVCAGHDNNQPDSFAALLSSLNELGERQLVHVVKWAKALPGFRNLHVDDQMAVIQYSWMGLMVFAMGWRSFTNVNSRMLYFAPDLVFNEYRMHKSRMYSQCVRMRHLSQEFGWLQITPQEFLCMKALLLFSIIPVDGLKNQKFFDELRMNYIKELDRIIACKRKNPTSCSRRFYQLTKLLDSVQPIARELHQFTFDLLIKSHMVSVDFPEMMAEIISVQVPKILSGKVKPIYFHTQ

For another series, the target named is Cytochrome P450 2C19 (Homo sapiens, UniProt P33261). Further: in other assays of this panel Not Active means under 50% inhibition at 10 µM.
Sequence of Cytochrome P450 2C19 (P33261 whole entry): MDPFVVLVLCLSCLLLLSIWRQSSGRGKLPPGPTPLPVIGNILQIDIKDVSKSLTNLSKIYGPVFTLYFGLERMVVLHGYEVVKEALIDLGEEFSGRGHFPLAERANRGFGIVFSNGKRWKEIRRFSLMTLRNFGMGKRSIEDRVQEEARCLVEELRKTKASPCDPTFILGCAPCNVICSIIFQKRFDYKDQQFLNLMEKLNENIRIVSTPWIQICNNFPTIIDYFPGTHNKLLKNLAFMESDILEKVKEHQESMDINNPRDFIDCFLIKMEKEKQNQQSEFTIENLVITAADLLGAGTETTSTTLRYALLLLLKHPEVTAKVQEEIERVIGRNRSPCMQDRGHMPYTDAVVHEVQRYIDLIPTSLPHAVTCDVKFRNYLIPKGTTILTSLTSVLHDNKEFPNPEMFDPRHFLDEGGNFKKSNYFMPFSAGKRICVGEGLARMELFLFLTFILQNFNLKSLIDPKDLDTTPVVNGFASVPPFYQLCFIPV
For series [5], the target named is T3, Cytochrome P450 2D6. The note with it: bti-tn-5b1-4.
Another series deals with Cytochrome P450 2C9 (Homo sapiens, UniProt P11712).
Sequence of Cytochrome P450 2C9 (P11712 whole entry): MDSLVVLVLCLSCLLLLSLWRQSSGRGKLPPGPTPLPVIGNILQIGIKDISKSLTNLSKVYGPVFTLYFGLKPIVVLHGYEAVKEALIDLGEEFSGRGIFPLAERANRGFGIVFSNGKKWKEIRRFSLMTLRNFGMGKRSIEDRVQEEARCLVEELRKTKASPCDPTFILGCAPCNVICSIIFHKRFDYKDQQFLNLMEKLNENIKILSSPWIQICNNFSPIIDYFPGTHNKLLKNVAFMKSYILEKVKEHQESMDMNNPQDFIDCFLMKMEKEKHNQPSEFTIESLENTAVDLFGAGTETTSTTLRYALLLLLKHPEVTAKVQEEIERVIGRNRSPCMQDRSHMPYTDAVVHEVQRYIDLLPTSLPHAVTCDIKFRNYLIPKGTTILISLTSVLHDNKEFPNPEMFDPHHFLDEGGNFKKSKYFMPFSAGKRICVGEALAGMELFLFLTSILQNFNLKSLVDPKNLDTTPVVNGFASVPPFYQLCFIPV

For orientation: IC50 means the point on the concentration scale where inhibition reaches its midpoint. With `CN(C)C(=O)Oc1cc(OC(=O)N(C)C)cc(C(O)CNC(C)(C)C)c1` (configuration not stated) [BAMBUTEROL], the half-inhibitory concentration (IC50) result is “Not Active” in series [1]; “Not Active” on D(3) dopamine receptor (cho); “Not Active” in series [2]; “Not Active” in [3]; 2000 nM on Cytochrome P450 2D6 [4]; “Not Active” at Androgen receptor.

As a reminder, the Ki is a measure of affinity in units of concentration, obtained from inhibition or displacement. For `CC(NC(C)(C)C)C(=O)c1cccc(Cl)c1` (configuration not stated) [BUPROPION], the IC50 entry in series [1] is “Not Active”; at D(3) dopamine receptor (cho), “Not Active”; in series [2], “Not Active”; in [3], “Not Active”; on Cytochrome P450 2C19 it was 2000 nM; at Cytochrome P450 2D6 [5] it was “Not Active”. For the same compound, the Ki entry at Cytochrome P450 2D6 [5] is “Not Active”.

Regarding `CN(Cc1ccc(C(C)(C)C)cc1)Cc1cccc2ccccc12` [BUTENAFINE], the half-inhibitory concentration (IC50) entry in [1] was “Not Active”; at D(3) dopamine receptor (cho), “Not Active”; in [2] it was “Not Active”; in series [3] it was “Not Active”; at Cytochrome P450 2D6 [4] it was 300 nM.

Turning to `Cc1ccc(-c2cc(C(F)(F)F)nn2-c2ccc(S(N)(=O)=O)cc2)cc1` [CELECOXIB], the IC50 result in series [1] is “Not Active”; at D(3) dopamine receptor (cho) it was “Not Active”; in [2], “Not Active”; in series [3] it was “Not Active”; at Cytochrome P450 2D6 [4], 1000 nM; at Androgen receptor it was “Not Active”.

Regarding `Cc1cc(C(C#N)c2ccc(Cl)cc2)c(Cl)cc1NC(=O)c1cc(I)cc(I)c1O` (configuration not stated) [CLOSANTEL], the IC50 entry is “Not Active” in [1]; “Not Active” on D(3) dopamine receptor (cho); “Not Active” in series [2]; “Not Active” in series [3]; 2000 nM on Cytochrome P450 2C9; “Not Active” against Cytochrome P450 2D6 [5]. In addition, the Ki result at Cytochrome P450 2D6 [5] is “Not Active”.

In the case of `CC(C)[C@@]1(NC(=O)[C@@H]2C[C@@H]3c4cccc5[nH]cc(c45)C[C@H]3N(C)C2)O[C@@]2(O)[C@@H]3CCCN3C(=O)[C@H](Cc3ccccc3)N2C1=O.CS(=O)(=O)O` [DIHYDROERGOCRISTINE MESYLATE], the IC50 result in series [1] was “Not Active”; on D(3) dopamine receptor (read-out: IC50), 2.29 nM; in series [2], “Not Active”; in series [3], “Not Active”; against Cytochrome P450 2C19, 3000 nM; against Cytochrome P450 2C9, 3000 nM. Also, the 50% inhibitory concentration (IC50) entry at Cytochrome P450 2D6 [5] was “Not Active”. Also, the inhibition constant Ki at D(3) dopamine receptor (read-out: Ki) was 0.777 nM; on Cytochrome P450 2D6 [5], “Not Active”.

`CCCCN1CCCC[C@H]1C(=O)Nc1c(C)cccc1C` [LEVOBUPIVACAINE]: the IC50 result in [1] is “Not Active”; on D(3) dopamine receptor (cho) it was “Not Active”; in series [2] it was “Not Active”; in [3], “Not Active”; against Cytochrome P450 2D6 [4], 196 nM; on Androgen receptor, “Not Active”.

Regarding `CCCCc1nc(Cl)c(CO)n1Cc1ccc(-c2ccccc2-c2nnn[nH]2)cc1` [LOSARTAN], the IC50 entry in [1] was “Not Active”; at D(3) dopamine receptor (cho), “Not Active”; in series [2] it was “Not Active”; in series [3], “Not Active”; on Cytochrome P450 2C9 it was 2880 nM; against Cytochrome P450 2D6 [5] it was “Not Active”. Further, the inhibition constant Ki entry on Cytochrome P450 2D6 [5] was “Not Active”.

With `CCCN1C[C@H](CSC)C[C@@H]2c3cccc4[nH]cc(c34)C[C@H]21` [PERGOLIDE], the IC50 result was “Not Active” in series [1], “Not Active” in [2], “Not Active” in series [3] and 200 nM on Cytochrome P450 2D6 [4].

In the case of `C1CCC(C(CC2CCCCN2)C2CCCCC2)CC1` (configuration not stated) [PERHEXILINE], the IC50 entry in series [1] was “Not Active”; at D(3) dopamine receptor (cho) it was “Not Active”; in series [2], “Not Active”; in series [3], “Not Active”; against Cytochrome P450 2D6 [4], 941 nM; at Androgen receptor it was “Not Active”.

Regarding `Cc1ccc(N(CC2=NCCN2)c2cccc(O)c2)cc1` [PHENTOLAMINE], the IC50 result in series [1] was “Not Active”; at D(3) dopamine receptor (cho), “Not Active”; in series [2], “Not Active”; in [3], “Not Active”; on Cytochrome P450 2D6 [4], 10000 nM.

Regarding LEAD (II) ACETATE, the IC50 result (in series [1]; at D(3) dopamine receptor (cho); in [2]; in [3]; at Androgen receptor; at Cytochrome P450 2D6 [5]) was “Not Active” throughout. In addition, the inhibition constant Ki entry (in series [1]; on D(3) dopamine receptor (cho); in [2]; in series [3]; at Androgen receptor; at Cytochrome P450 2D6 [5]) was “Not Active” throughout.

Consider LIPOPOLYSACCHARIDE E. COLI O55:B5, for which the IC50 entry (in series [1]; on D(3) dopamine receptor (cho); in series [2]; in series [3]; against Androgen receptor; at Cytochrome P450 2D6 [5]) was “Not Active” throughout. Besides, the Ki entry (in [1]; on D(3) dopamine receptor (cho); in series [2]; in series [3]; at Androgen receptor; at Cytochrome P450 2D6 [5]) was “Not Active” throughout.
